According to ChEMBL document CHEMBL1201862, “PubChem BioAssay data set” (2004):
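Grown in 96-well plates, cells were treated for 48 hours with each compound at five concentrations. Insufficient inhibition: endpoint recorded as highest concentration tested. At the GI50, growth is halved.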 Calls of active or inactive are those of the source. Rule as the data show it: active = GI50 up to about 1.1 µM and inactive = higher.

Experiments:
Experiment in all cases: NCI anticancer screen, dose series, 48 h
IGROV-1 = system: IGROV-1
OVCAR-3 = system: OVCAR-3
NCI-H226 = system: NCI-H226
DU-145 = system: DU-145
M14 = system: M14
SW-620 = system: SW-620
786-0 = system: 786-0
RPMI-8226 = system: RPMI-8226
SF-295 = system: SF-295
OVCAR-5 = system: OVCAR-5
UACC-62 = system: UACC-62
COLO 205 = system: COLO 205
SK-MEL-5 = system: SK-MEL-5
UO-31 = system: UO-31
HCT-15 = system: HCT-15
NCI/ADR-RES = system: NCI/ADR-RES
MDA-MB-231 = system: MDA-MB-231
SR = system: SR
MDA-MB-435 = system: MDA-MB-435

Row | Compound | GI50 (IGROV-1) | GI50 (OVCAR-3) | GI50 (NCI-H226) | GI50 (DU-145) | GI50 (M14) | GI50 (SW-620) | GI50 (786-0) | GI50 (RPMI-8226) | GI50 (SF-295) | GI50 (OVCAR-5) | GI50 (UACC-62) | GI50 (COLO 205) | GI50 (SK-MEL-5) | GI50 (UO-31) | GI50 (HCT-15) | GI50 (NCI/ADR-RES) | GI50 (MDA-MB-231) | GI50 (SR) | GI50 (MDA-MB-435)
1 | O=C1CCCC/C1=C/C=C/c1ccccc1 | > 100 µM (inactive) | 66.4 µM (inactive) | > 100 µM (inactive) | 64.6 µM (inactive) | 58.9 µM (inactive) | 41.6 µM (inactive) | > 100 µM (inactive) | 32.5 µM (inactive) | 48.6 µM (inactive) | > 100 µM (inactive) | 52.1 µM (inactive) | > 100 µM (inactive) | 41.2 µM (inactive) | 44.4 µM (inactive) |  |  |  |  | 
2 | NS(=O)(=O)c1nn2c(Br)c(-c3ccccc3)nc2s1 | 10.4 µM (inactive) | 4.49 µM (inactive) | 1.91 µM (inactive) | 3.08 µM (inactive) | 3.31 µM (inactive) | 3.62 µM (inactive) | 2.45 µM (inactive) | 2.39 µM (inactive) | 8.97 µM (inactive) | 11.1 µM (inactive) | 4.23 µM (inactive) | 5.24 µM (inactive) | 2.42 µM (inactive) | 4.02 µM (inactive) | 2.86 µM | 3.84 µM (inactive) | 4.47 µM (inactive) | 1.88 µM (inactive) | 4.45 µM (inactive)
3 | COC(=O)/C=C1\C(=O)Nc2ccc(Br)cc21 | 1.75 µM (inactive) | 1.46 µM (inactive) | 1.72 µM (inactive) | 1.86 µM (inactive) | 2.24 µM (inactive) | 1.2 µM (inactive) | 1.48 µM (inactive) | 1.41 µM (inactive) | 2.3 µM (inactive) | 1.54 µM (inactive) | 1.56 µM (inactive) | 1.67 µM (inactive) | 1.6 µM (inactive) | 2.19 µM (inactive) | 1.16 µM | 1.91 µM (inactive) | 2.51 µM (inactive) | 0.925 µM (active) | 1.87 µM (inactive)
4 | C[C@]12CC[C@H]3[C@@H](CC=C4C[C@@H](N5CCCC5)CC[C@@]43C)[C@@H]1C/C(=C\c1ccc([N+](=O)[O-])cc1)[C@@H]2O | 14.8 µM (inactive) | 17 µM (inactive) | 18.5 µM (inactive) | 17.3 µM (inactive) | 16.6 µM (inactive) | 17.9 µM (inactive) | 5.77 µM (inactive) | 16.1 µM (inactive) | 24.9 µM (inactive) |  | 15.8 µM (inactive) | 16.6 µM (inactive) | 15 µM (inactive) | 15.1 µM (inactive) | 13.8 µM | 17.7 µM (inactive) | 16.2 µM (inactive) | 1.88 µM (inactive) | 16.9 µM (inactive)
5 | Clc1ccc(-c2nn3c(C45CC6CC(CC(C6)C4)C5)nnc3s2)cc1 | > 100 µM (inactive) | 39.1 µM (inactive) | > 100 µM (inactive) | > 100 µM (inactive) | > 100 µM (inactive) | > 100 µM (inactive) | 35.7 µM (inactive) | > 100 µM (inactive) | > 100 µM (inactive) | > 100 µM (inactive) | > 100 µM (inactive) | > 100 µM (inactive) | > 100 µM (inactive) | > 100 µM (inactive) | > 100 µM | > 100 µM (inactive) | 55.6 µM (inactive) | > 100 µM (inactive) | > 100 µM (inactive)
6 | O=c1c2ccccc2[nH]c2ccc3c(Cl)n[nH]c3c12 | 35 µM (inactive) | 57.4 µM (inactive) | 0.54 µM (active) |  | 60.1 µM (inactive) | 36.5 µM (inactive) | 34.1 µM (inactive) | 39.7 µM (inactive) | 37.2 µM (inactive) | 41.1 µM (inactive) | 35 µM (inactive) | 36.4 µM (inactive) | 40.9 µM (inactive) | 26.7 µM (inactive) | 35.6 µM |  |  | 36.1 µM (inactive) | 
7 | CC1CCN(C(C)C)P(=S)(Cc2ccccc2)O1 (configuration not stated) | > 100 µM (inactive) | 34.4 µM (inactive) | > 100 µM (inactive) | > 100 µM (inactive) | > 100 µM (inactive) | 7.93 µM (inactive) | > 100 µM (inactive) | 99.8 µM (inactive) | 34 µM (inactive) | > 100 µM (inactive) | 16.7 µM (inactive) | > 100 µM (inactive) | > 100 µM (inactive) | > 100 µM (inactive) | > 100 µM | > 100 µM (inactive) | > 100 µM (inactive) | > 100 µM (inactive) | > 100 µM (inactive)
8 | CC[As](CC)SCC1OC(OC(C)=O)C(OC(C)=O)C(OC(C)=O)C1OC(C)=O (configuration not stated) | 18.3 µM (inactive) | 14.4 µM (inactive) | 14.3 µM (inactive) |  | 12.3 µM (inactive) | 4.74 µM (inactive) | 14.4 µM (inactive) | 6.58 µM (inactive) | 18.9 µM (inactive) | 18.3 µM (inactive) | 13.9 µM (inactive) | 2.42 µM (inactive) | 15.1 µM (inactive) | 16.2 µM (inactive) | 13.6 µM |  |  | 12 µM (inactive) | 
9 | COc1ccc(/C=C/c2nnc(S)[nH]2)cc1 | > 100 µM (inactive) | > 100 µM (inactive) | > 100 µM (inactive) |  | > 100 µM (inactive) | > 100 µM (inactive) | > 100 µM (inactive) | > 100 µM (inactive) | > 100 µM (inactive) | > 100 µM (inactive) | > 100 µM (inactive) |  | > 100 µM (inactive) | > 100 µM (inactive) | > 100 µM |  |  | > 100 µM (inactive) | 
10 | COC(O)C(=O)c1c2c(cc3c1CC1(Cc4cc5c(cc4C1)CCC5)C3)CCC2 (configuration not stated) | 13 µM (inactive) | 15.6 µM (inactive) |  | 19.5 µM (inactive) | 16.6 µM (inactive) | 16.2 µM (inactive) | 14 µM (inactive) | 8.02 µM (inactive) | 19.7 µM (inactive) | 18.2 µM (inactive) |  |  | 17.3 µM (inactive) | 18.7 µM (inactive) | 20.7 µM | 17.3 µM (inactive) | 14.1 µM (inactive) | 3.99 µM (inactive) | 2.7 µM (inactive)
11 | CC1(C)CC(C2CC(C)(C)CC(C)(C)[C@H]2O)[C@@H](O)C(C)(C)C1 (some centres not stated) | > 100 µM (inactive) | > 100 µM (inactive) | > 100 µM (inactive) |  | > 100 µM (inactive) | > 100 µM (inactive) | > 100 µM (inactive) | > 100 µM (inactive) | > 100 µM (inactive) |  | > 100 µM (inactive) | > 100 µM (inactive) | > 100 µM (inactive) | > 100 µM (inactive) | > 100 µM |  |  | > 100 µM (inactive) | 
12 | COc1cc(C=O)c(-c2cc(OC)c(OC)cc2C=O)cc1OC | > 100 µM (inactive) | > 100 µM (inactive) | > 100 µM (inactive) |  | > 100 µM (inactive) | 78 µM (inactive) | > 100 µM (inactive) | 36.9 µM (inactive) | > 100 µM (inactive) | > 100 µM (inactive) | > 100 µM (inactive) | > 100 µM (inactive) | 76.6 µM (inactive) | 64.6 µM (inactive) | > 100 µM |  |  | 24.3 µM (inactive) | 
